# Test results: US20070249590A1, “Substituted indolo[2,3-a]pyrrolo[3,4-c]carbazole compounds useful in treating kinase disorders” (priority 2005, published 2007)
# pIC50: −log10 of the molar value.
# Molecular target: T1, JAK3 (JH1 and JH2 domain) (Homo sapiens, UniProt P52333)
# T1 sequence (P52333 521-1111 limits assumed): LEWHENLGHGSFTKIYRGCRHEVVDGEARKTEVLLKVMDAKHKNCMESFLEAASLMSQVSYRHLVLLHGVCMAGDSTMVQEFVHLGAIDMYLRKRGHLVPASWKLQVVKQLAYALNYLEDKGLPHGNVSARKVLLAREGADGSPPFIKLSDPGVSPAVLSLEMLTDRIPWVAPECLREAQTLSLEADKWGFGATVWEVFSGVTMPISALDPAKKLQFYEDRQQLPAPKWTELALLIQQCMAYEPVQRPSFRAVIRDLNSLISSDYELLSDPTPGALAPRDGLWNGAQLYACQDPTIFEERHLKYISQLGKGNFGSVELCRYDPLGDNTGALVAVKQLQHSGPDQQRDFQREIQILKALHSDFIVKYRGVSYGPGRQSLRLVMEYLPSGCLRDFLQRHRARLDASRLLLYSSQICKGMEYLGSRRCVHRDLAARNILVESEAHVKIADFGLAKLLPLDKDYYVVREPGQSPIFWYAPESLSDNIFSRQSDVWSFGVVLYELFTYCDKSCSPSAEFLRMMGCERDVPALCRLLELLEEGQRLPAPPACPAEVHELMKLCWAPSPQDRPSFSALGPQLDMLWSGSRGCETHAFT
# Assay: JAK3 Kinase Assay (ELISA of peptide substrate phosphorylation)
# Format: biochemical
# Details: purified JAK3 enzyme, 10 μM ATP, biotinylated peptide substrate, 1 hour at room temperature
# Description: JAK3 enzyme activity was assayed relative to enzyme phosphorylation using the method described herein.
# Sf21 cells derived from the ovarian tissue of the fall armyworm Spodotera frugiperda were obtained from Pharmingen (San Diego, Calif.) and maintained at a temperature of about 26-28° C. in 1 l Bellco spinner flasks at 60-90 rpm. Cell viability was maintained at 95-100%, as determined by a tryptan blue dye exclusion test.
# Sf21 cells were infected with a baculovirus expression vector for JAK3 (JH1 and JH2 domain). After 48 hours of infection, cells were harvested and lysed in Tris-saline (pH 7.6) containing 2% NP-40 and a combination of protease inhibitors (Aprotinin, Pepstatin A, Pefabloc, E-64, Leupeptin, and Benzamidine) on ice for 45 minutes.
# The JAK3 enzyme was purified from the lysate using glutathione sepharose beads and the enzyme activity was assessed in Costar flat bottom EIA/RIA 96 well plates. The plates were coated with Neutravidin (110 μL) (Pierce Neutravidin Biotin-binding Protein 31000; 1 mg/mL 1:100) diluted in PBS for 1 hour at room temperature. The plates were washed with PBS-0.1% Tween (3 times) to remove unbound Neutravidin, then 1% BSA (150 NIL) in PBS was added to each well to block non-specific binding. The plates was incubated for 1 hour at room temperature and stored at −80° C. until use.
# JAK3 enzyme solution (48 μL) in 1.25×TK buffer (62.5 mM HEPES pH 7.5, 12.5 mM MgCl2) containing DTT (42 mM) (Sigma, St. Louis, Mo.) was added to each well of a polypropylene 96 well plate.
# A test compound (5 μL) diluted in DMSO (48 μL) and biotinylated peptide enzyme substrate (5 μg diluted in TK buffer containing 10 μM ATP) were added to each well using the double dispense feature of a multichannel electronic biohit. Control wells received DMSO vehicle (5 μL). The contents of the wells were mixed for approximately 8 seconds using a multitube vortexer and the reaction mixture was incubated for 1 hour at room temperature.
# After incubation, an aliquot of reaction mixture (90 μL) was transferred into a washed Neutravidin coated plate. The plate was incubated for 15 minutes at room temperature and washed 3 times with PBS-T. PY99 anti-phosphotyrosine antibody (100 μL/well) (Santa Cruz #sc-7020HRP diluted 1:6000 in 1× antibody buffer) was added into each well and the plate was incubated for 40 minutes at room temperature. The antibody buffer contained 10% BSA, 100 mM Tris (pH 7.5), 1M NaCl and 1% Tween 20. The plate washed 3 times with PBS-T, then TMB (100 pLXSigma, St. Louis, Mo.) was added to the each well. The plate was incubated for another 40 mins at room temperature in the dark. The reaction was stopped by the addition of 1M H2SO4 (50 μL/well) and the optical density was read at 450/650 nm.
# Test compounds were assayed in triplicate at 16 concentrations at half-log dilutions starting at 200 μM. A maximum and minimum signal for the assay was determined on each plate. The percent inhibition of a test compound was calculated according to the formula [formula]
# For a series of test concentrations, the IC50 was derived by graphing percent inhibition against the log of the concentrations tested for a given compound. For those compounds without an IC50, the percent inhibition results are shown at a test concentration of 1 μM.
row,pIC50,Structure (SMILES)
1,7.92,"CC1(O)Cn2c3ccccc3c3c4c(c5c6ccccc6n(c5c32)CC1(C)O)C(=O)NC4 (stereo not drawn) [Cpd 20, 12,13-(2,3-dimethyl-2,3-dihydroxy-butan-1,4-yl)-6,7,12,13-tetrahydro-5-oxo-5H-indolo[2,3-a]pyrrolo[3,4-c]carbazole]"
2,6.84,"CN1CCN(CCCNC(=O)OC2Cn3c4ccccc4c4c5c(c6c7ccccc7n(c6c43)CC2O)C(=O)NC5=O)CC1 (stereo not drawn) [Cpd 90, 12,13-(2-{[3-(4-methyl-piperazin-1-yl)prop-1-yl]carbamoyloxy}-3-hydroxy-butan-1,4-yl)-12,13-dihydro-5,7-dioxo-6H-indolo[2,3-a]pyrrolo[3,4-c]carbazole]"
3,7.26,"CN(C)CCCN1CCN(C(=O)C2(O)Cn3c4ccccc4c4c5c(c6c7ccccc7n(c6c43)CC2O)C(=O)NC5=O)CC1 (stereo not drawn) [Cpd 126, 12,13-(2-{[4-(3-dimethylamino-prop-1-yl)piperazin-1-yl]carbonyl}-2,3-dihydroxy-butan-1,4-yl)-12,13-dihydro-5,7-dioxo-6H-indolo[2,3-a]pyrrolo[3,4-c]carbazole]"
4,8.15,"COC(=O)/C1=C/Cn2c3ccccc3c3c4c(c5c6ccccc6n(c5c32)C1)C(=O)NC4=O [Cpd 3, 12,13-(2-methoxycarbonyl-but-2-en-1,4-yl)-12,13-dihydro-5,7-dioxo-6H-indolo[2,3-a]pyrrolo[3,4-c]carbazole]"
5,7.26,"CN(C)CCN(Cc1ccccc1)C(=O)OC1Cn2c3ccccc3c3c4c(c5c6ccccc6n(c5c32)CC1O)C(=O)NC4=O (stereo not drawn) [Cpd 69, 12,13-(2-{[N-benzyl-N-(2-dimethylamino-ethyl)]carbamoyloxy}-3-hydroxy-butan-1,4-yl)-12,13-dihydro-5,7-dioxo-6H-indolo[2,3-a]pyrrolo[3,4-c]carbazole]"
6,5.50,"O=C1NCc2c1c1c3cc(Br)ccc3n3c1c1c2c2cc(CN4CCOCC4)ccc2n1CC(CO)C3 (stereo not drawn) [Cpd 208, 3-bromo-9-(morpholin-4-ylmethyl)-12,13-(2-hydroxymethyl-propan-1,3-yl)-6,7,12,13-tetrahydro-5-oxo-5H-indolo[2,3-a]pyrrolo[3,4-c]carbazole]"
7,~6.00,"CN1CCC(N(C)Cc2ccc3c(c2)c2c4c(c5c6ccccc6n6c5c2n3CC(O)C(O)C6)CNC4=O)CC1 (stereo not drawn) [Cpd 196, 3-{[N-methyl-N-(1-methyl-piperidin-4-yl)]aminomethyl}-12,13-(2,3-dihydroxy-butan-1,4-yl)-6,7,12,13-tetrahydro-5-oxo-5H-indolo[2,3-a]pyrrolo[3,4-c]carbazole]"
8,6.36,"O=C(NCC1CCCCC1)OC1Cn2c3ccccc3c3c4c(c5c6ccccc6n(c5c32)CC1O)C(=O)NC4=O (stereo not drawn) [Cpd 81, 12,13-{2-[(cyclohexyl-methyl)carbamoyloxy]-3-hydroxy-butan-1,4-yl}-12,13-dihydro-5,7-dioxo-6H-indolo[2,3-a]pyrrolo[3,4-c]carbazole]"
9,7.85,"CC(C)NC(=O)OC1Cn2c3ccccc3c3c4c(c5c6ccccc6n(c5c32)CC1O)C(=O)NC4=O (stereo not drawn) [Cpd 85, 12,13-[2-(prop-2-yl-carbamoyloxy)-3-hydroxy-butan-1,4-yl]-12,13-dihydro-5,7-dioxo-6H-indolo[2,3-a]pyrrolo[3,4-c]carbazole]"
10,7.38,"CN1CCN(CC(=O)Nc2ccc3c(c2)c2c4c(c5c6ccccc6n6c5c2n3CC(O)C(O)C6)CNC4=O)CC1 (stereo not drawn) [Cpd 205, 3-{[(4-methyl-piperazin-1-yl)methylcarbonyl]amino}-12,13-(2,3-dihydroxy-butan-1,4-yl)-6,7,12,13-tetrahydro-5-oxo-5H-indolo[2,3-a]pyrrolo[3,4-c]carbazole]"
11,7.48,"Cc1ccc(CNC(=O)OC2Cn3c4ccccc4c4c5c(c6c7ccccc7n(c6c43)CC2O)C(=O)NC5=O)o1 (stereo not drawn) [Cpd 86, 12,13-(2-{[(5-methyl-furan-2-yl)methyl]carbamoyloxy}-3-hydroxy-butan-1,4-yl)-12,13-dihydro-5,7-dioxo-6H-indolo[2,3-a]pyrrolo[3,4-c]carbazole]"
12,7.02,CC1(C)OCC2(CO1)Cn1c3ccccc3c3c4c(c5c6ccccc6n(c5c31)C2)C(=O)NC4 [Cpd 26]
13,< 6.40,"CN1CCN(C(=O)OC2CCn3c4ccccc4c4c5c(c6c7ccccc7n(c6c43)C2)C(=O)NC5=O)CC1 (stereo not drawn) [Cpd 51, 12,13-{2-[(4-methyl-piperazin-1-yl)carbonyloxy]-butan-1,4-yl}-12,13-dihydro-5,7-dioxo-6H-indolo[2,3-a]pyrrolo[3,4-c]carbazole]"
14,< 6.70,"O=C(NCCCN1CCCC1=O)OCC1Cn2c3ccccc3c3c4c(c5c6ccccc6n(c5c32)C1)C(=O)NC4 (stereo not drawn) [Cpd 157, 12,13-(2-{[3-(2-oxo-pyrrolidin-1-yl)prop-1-yl]carbamoyloxymethyl}-propan-1,3-yl)-6,7,12,13-tetrahydro-5-oxo-5H-indolo[2,3-a]pyrrolo[3,4-c]carbazole]"
15,6.79,"O=C1NCc2c1c1c3ccccc3n3c1c1c2c2ccccc2n1CC(O)(COC(=O)N1CCOCC1)C3 (stereo not drawn) [Cpd 138, 12,13-[2-hydroxy-2-(morpholin-4-yl-carbonyloxymethyl)-propan-1,3-yl]-6,7,12,13-tetrahydro-5-oxo-5H-indolo[2,3-a]pyrrolo[3,4-c]carbazole]"
16,6.45,"COCCNCc1ccc2c(c1)c1c3c(c4c5ccccc5n5c4c1n2CC(O)C(O)C5)CNC3=O (stereo not drawn) [Cpd 198, 3-[(2-methoxy-ethyl)aminomethyl]-12,13-(2,3-dihydroxy-butan-1,4-yl)-6,7,12,13-tetrahydro-5-oxo-5H-indolo[2,3-a]pyrrolo[3,4-c]carbazole]"
17,6.42,"O=C1NCc2c1c1c3ccccc3n3c1c1c2c2ccccc2n1CC(COC(=O)N1CCN(CCO)CC1)C3 (stereo not drawn) [Cpd 164, 12,13-(2-{[4-(2-hydroxy-ethyl)piperazin-1-yl]carbonyloxymethyl}-propan-1,3-yl)-6,7,12,13-tetrahydro-5-oxo-5H-indolo[2,3-a]pyrrolo[3,4-c]carbazole]"
18,7.44,"O=C1NC(=O)c2c1c1c3ccccc3n3c1c1c2c2ccccc2n1CC(O)(C(=O)NC(CO)CO)C(O)C3 (stereo not drawn) [Cpd 118, 12,13-{2-[(1,3-hydroxy-isopropyl)carbamoyl]-2,3-dihydroxy-butan-1,4-yl}-12,13-dihydro-5,7-dioxo-6H-indolo[2,3-a]pyrrolo[3,4-c]carbazole]"
19,7.28,"O=C1NCc2c1c1c3ccccc3n3c1c1c2c2ccccc2n1C[C@@H](O)[C@H](O)C3 [Cpd 19, 12,13-[(2R,3R)-dihydroxy-butan-1,4-yl]-6,7,12,13-tetrahydro-5-oxo-5H-indolo[2,3-a]pyrrolo[3,4-c]carbazole]"
20,6.83,"O=C(NCCCN1CCOCC1)OC1CCn2c3ccccc3c3c4c(c5c6ccccc6n(c5c32)C1)C(=O)NC4=O (stereo not drawn) [Cpd 42, 12,13-{2-[(3-morpholin-4-yl-prop-1-yl)carbamoyloxy]-butan-1,4-yl}-12,13-dihydro-5,7-dioxo-6H-indolo[2,3-a]pyrrolo[3,4-c]carbazole]"
21,7.19,"CN1CCN(C(=O)OC2Cn3c4ccccc4c4c5c(c6c7ccccc7n(c6c43)CC2O)C(=O)NC5=O)CC1 (stereo not drawn) [Cpd 76, 12,13-{2-[(4-methyl-piperazin-1-yl)carbonyloxy]-3-hydroxy-butan-1,4-yl}-12,13-dihydro-5,7-dioxo-6H-indolo[2,3-a]pyrrolo[3,4-c]carbazole]"
